Reference: patent US20220259202A1, “1-(4-(AMINOMETHYL)BENZYL)-2-BUTYL-2H-PYRAZOLO[3,4-C]QUINOLIN-4-AMINE DERIVATIVES AND RELATED COMPOUNDS AS TOLL-LIKE RECEPTOR (TLR) 7/8 AGONISTS, AS WELL AS ANTIBODY DRUG CONJUGATES THEREOF FOR USE IN CANCER THERAPY AND DIAGNOSIS” (SUTRO BIOPHARMA, INC., priority 2019, published 2022)

Target: T1, mouse TLR7 (Mus musculus, UniProt P58681)
T1 construct: host or cells: HEK293
T1 sequence (P58681 27-1050): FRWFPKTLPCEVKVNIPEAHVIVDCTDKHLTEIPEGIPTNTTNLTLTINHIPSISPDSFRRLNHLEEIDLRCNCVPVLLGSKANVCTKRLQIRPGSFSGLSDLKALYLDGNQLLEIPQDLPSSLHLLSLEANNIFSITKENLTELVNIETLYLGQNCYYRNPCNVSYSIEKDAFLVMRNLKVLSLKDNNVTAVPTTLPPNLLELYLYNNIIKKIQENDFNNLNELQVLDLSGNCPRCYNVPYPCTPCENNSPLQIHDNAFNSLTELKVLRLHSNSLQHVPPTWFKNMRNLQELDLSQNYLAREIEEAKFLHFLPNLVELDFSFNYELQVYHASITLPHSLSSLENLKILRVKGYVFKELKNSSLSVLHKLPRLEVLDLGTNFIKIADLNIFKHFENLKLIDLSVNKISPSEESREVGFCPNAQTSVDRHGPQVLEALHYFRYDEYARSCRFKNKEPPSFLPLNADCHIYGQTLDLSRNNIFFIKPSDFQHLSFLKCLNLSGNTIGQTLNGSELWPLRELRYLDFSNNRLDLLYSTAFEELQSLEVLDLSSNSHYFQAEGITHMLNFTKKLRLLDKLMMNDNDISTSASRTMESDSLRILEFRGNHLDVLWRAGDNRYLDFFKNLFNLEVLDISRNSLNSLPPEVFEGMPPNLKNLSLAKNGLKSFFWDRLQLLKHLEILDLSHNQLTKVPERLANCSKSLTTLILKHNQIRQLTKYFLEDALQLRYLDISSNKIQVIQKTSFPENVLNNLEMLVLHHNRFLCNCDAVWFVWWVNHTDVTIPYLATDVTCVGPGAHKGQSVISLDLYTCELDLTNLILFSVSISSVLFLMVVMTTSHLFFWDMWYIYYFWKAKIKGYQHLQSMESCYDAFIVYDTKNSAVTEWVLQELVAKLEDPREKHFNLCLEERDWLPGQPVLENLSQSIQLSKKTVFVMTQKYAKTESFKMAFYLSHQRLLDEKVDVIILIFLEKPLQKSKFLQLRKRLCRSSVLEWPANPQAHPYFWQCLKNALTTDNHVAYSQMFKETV
Assay: HEK293 SEAP reporter assay, mouse TLR7 (Biological Example 1)
Type: cell-based
Settings: HEK293-mouseTLR7 reporter cells, 4 hrs; read-out: mTLR7 EC50
Procedure: In this example, the activity of the TLR7 agonists to activate human TLR7, hTLR7 (or human TLR8, hTLR8, or mouse TLR7, mTLR7) pathway was evaluated on HEK293 reporter cells transfected with human TLR7 (or mouse TLR7 or human TLR8) and an inducible SEAP (secreted embryonic alkaline phosphatase) reporter gene. The SEAP reporter gene is placed under the control of the IFN-β minimal promoter fused to five NF-κB and AP-1-binding sites. Stimulation with a TLR7 agonist activates NF-KB and AP-1 which induces the production of SEAP. Levels of SEAP was determined with HEK-Blue Detection medium.
HEK293-humanTLR7, HEK293-mouseTLR7 and HEK293-humanTLR8 reporter cell lines were purchased from Invivogen and cell lines were maintained in manufacture recommended culture medium with required supplemental antibiotics. On the day of assay, the cells were harvested with Accutase and counted by the Vi-CELL Cell Viability Analyzers. Cells were re-suspended in HEK blue detection medium and a total of 10000 cells were seeded in each well of a 384-well flat bottom plate. Serial dilutions of TLR7 agonists free drugs (1:3 serial dilution starting from 5 μM) was added into treatment wells. Assay plates were cultured at 37° C. in a CO2 incubator for […]. HEK-Blue™ Detection medium changes to a purple/blue color in the presence of secreted SEAP, which can be detected by spectrophotometry at 620-655 nm. […]

EC50: 29.1 nM
SMILES: CCCCn1nc2c(N)nc3ccccc3c2c1Cc1ccc(CN)cc1 [Compound 1, 1-(4-(aminomethyl)benzyl)-2-butyl-2H-pyrazolo[3,4-c]quinolin-4-amine]
